Oligonucleotides are written 5' to 3', each unit as a sugar letter and its base; * is a phosphorothioate linkage, no mark a phosphodiester; rarer units and linkages stand in square brackets, end groups in braces. Plain capitals give the bases only. d = 2'-deoxy (DNA); r = 2'-OH (RNA)
Target: UBE2B
Assay: reporter assay of Huesken 2005
Settings: siRNA
Further: test concentration or dose not given here.

| Substance | normalised inhibition (eCFP-eYFP dual reporter) [%] |
| --- | --- |
| sense rArArCrArUrCrArUrGrCrArGrUrGrGrArArUrGdTdT / antisense rCrArUrUrCrCrArCrUrGrCrArUrGrArUrGrUrUdGdT | 55 |
| sense rArArCrCrGrArArUrCrCrUrArArCrArGrUrCrCdTdT / antisense rGrGrArCrUrGrUrUrArGrGrArUrUrCrGrGrUrUdCdA | 49.9 |
| sense rArArUrArGrCrCrArGrGrCrArGrCrArCrArGrCdTdT / antisense rGrCrUrGrUrGrCrUrGrCrCrUrGrGrCrUrArUrUdGdG | 51 |
| sense rArArUrCrGrArUrGrGrArGrUrCrCrArArCrArUdTdT / antisense rArUrGrUrUrGrGrArCrUrCrCrArUrCrGrArUrUdCdT | 74.4 |
| sense rArArUrGrUrUrUrCrArUrCrCrArArArUrGrUrGdTdT / antisense rCrArCrArUrUrUrGrGrArUrGrArArArCrArUrUdTdT | 63.5 |
| sense rArArUrUrCrArGrUrCrUrCrUrGrCrUrGrGrArUdTdT / antisense rArUrCrCrArGrCrArGrArGrArCrUrGrArArUrUdGdA | 60.8 |
| sense rArCrArArGrArGrGrArCrCrCrArCrCrUrGrUrGdTdT / antisense rCrArCrArGrGrUrGrGrGrUrCrCrUrCrUrUrGrUdAdA | 61.1 |
| sense rArCrCrArUrCrUrGrArArArArCrArArCrArUrCdTdT / antisense rGrArUrGrUrUrGrUrUrUrUrCrArGrArUrGrGrUdGdC | 50.8 |
| sense rArCrCrUrGrUrGrGrGrUrGrUrCrArGrUrGrGrCdTdT / antisense rGrCrCrArCrUrGrArCrArCrCrCrArCrArGrGrUdGdG | 76.7 |
| sense rArCrGrArGrArArUrArUrGrArGrArArArArGrAdTdT / antisense rUrCrUrUrUrUrCrUrCrArUrArUrUrCrUrCrGrUdTdT | 84.2 |
| sense rArGrArArArArGrArGrUrUrUrCrGrGrCrCrArUdTdT / antisense rArUrGrGrCrCrGrArArArCrUrCrUrUrUrUrCrUdCdA | 77.8 |
| sense rArGrArArUrCrGrArUrGrGrArGrUrCrCrArArCdTdT / antisense rGrUrUrGrGrArCrUrCrCrArUrCrGrArUrUrCrUdGdA | 64.8 |
| sense rArGrCrCrArArUrArGrCrCrArGrGrCrArGrCrAdTdT / antisense rUrGrCrUrGrCrCrUrGrGrCrUrArUrUrGrGrCrUdGdG | 75.9 |
| sense rArGrCrCrArGrGrCrArGrCrArCrArGrCrUrUrUdTdT / antisense rArArArGrCrUrGrUrGrCrUrGrCrCrUrGrGrCrUdAdT | 71.4 |
| sense rArGrGrGrArCrArCrCrUrUrUrUrGrArArGrArUdTdT / antisense rArUrCrUrUrCrArArArArGrGrUrGrUrCrCrCrUdTdC | 78.1 |
| sense rArGrUrCrCrArArCrArUrArUrGrArUrGrUrArUdTdT / antisense rArUrArCrArUrCrArUrArUrGrUrUrGrGrArCrUdCdC | 83.6 |
| sense rArGrUrCrCrArGrCrCrArArUrArGrCrCrArGrGdTdT / antisense rCrCrUrGrGrCrUrArUrUrGrGrCrUrGrGrArCrUdGdT | 68.7 |
| sense rArGrUrCrUrCrUrGrCrUrGrGrArUrGrArArCrCdTdT / antisense rGrGrUrUrCrArUrCrCrArGrCrArGrArGrArCrUdGdA | 53.1 |
| sense rArGrUrUrArUrArUrUrUrGrGrArCrCrArGrArAdTdT / antisense rUrUrCrUrGrGrUrCrCrArArArUrArUrArArCrUdGdC | 79 |
| sense rArUrArGrCrCrArGrGrCrArGrCrArCrArGrCrUdTdT / antisense rArGrCrUrGrUrGrCrUrGrCrCrUrGrGrCrUrArUdTdG | 71.2 |
| sense rArUrArUrGrArGrArArArArGrArGrUrUrUrCrGdTdT / antisense rCrGrArArArCrUrCrUrUrUrUrCrUrCrArUrArUdTdC | 46.3 |
| sense rArUrCrCrArArArUrGrUrGrUrArUrGrCrUrGrAdTdT / antisense rUrCrArGrCrArUrArCrArCrArUrUrUrGrGrArUdGdA | 73 |
| sense rArUrCrCrUrUrCrArGrArArUrCrGrArUrGrGrAdTdT / antisense rUrCrCrArUrCrGrArUrUrCrUrGrArArGrGrArUdAdT | 77.2 |
| sense rArUrGrCrArGrUrUrArUrArUrUrUrGrGrArCrCdTdT / antisense rGrGrUrCrCrArArArUrArUrArArCrUrGrCrArUdTdC | 53.2 |
| sense rArUrGrGrUrArGrCrArUrArUrGrUrUrUrArGrAdTdT / antisense rUrCrUrArArArCrArUrArUrGrCrUrArCrCrArUdCdA | 69.4 |
| sense rArUrGrUrUrUrArGrArUrArUrCrCrUrUrCrArGdTdT / antisense rCrUrGrArArGrGrArUrArUrCrUrArArArCrArUdAdT | 46.7 |

| Substance | normalised inhibition (eCFP-eYFP dual reporter) [%] |
| --- | --- |
| sense rArUrUrUrCrArArGrCrGrGrUrUrArCrArArGrAdTdT / antisense rUrCrUrUrGrUrArArCrCrGrCrUrUrGrArArArUdCdC | 78.2 |
| sense rArUrUrUrUrCrUrGrArArGrArArUrArUrCrCrAdTdT / antisense rUrGrGrArUrArUrUrCrUrUrCrArGrArArArArUdTdC | 63.7 |
| sense rCrArArArUrGrUrGrUrArUrGrCrUrGrArUrGrGdTdT / antisense rCrCrArUrCrArGrCrArUrArCrArCrArUrUrUrGdGdA | 62.6 |
| sense rCrArGrArArUrCrGrArUrGrGrArGrUrCrCrArAdTdT / antisense rUrUrGrGrArCrUrCrCrArUrCrGrArUrUrCrUrGdAdA | 86.3 |
| sense rCrArGrCrArCrArGrCrUrUrUrArUrCrArGrGrAdTdT / antisense rUrCrCrUrGrArUrArArArGrCrUrGrUrGrCrUrGdCdC | 77.5 |
| sense rCrArGrGrArArArArCrArArArCrGrArGrArArUdTdT / antisense rArUrUrCrUrCrGrUrUrUrGrUrUrUrUrCrCrUrGdAdT | 84 |
| sense rCrArGrGrCrArGrCrArCrArGrCrUrUrUrArUrCdTdT / antisense rGrArUrArArArGrCrUrGrUrGrCrUrGrCrCrUrGdGdC | 75.1 |
| sense rCrArGrUrGrGrArArUrGrCrArGrUrUrArUrArUdTdT / antisense rArUrArUrArArCrUrGrCrArUrUrCrCrArCrUrGdCdA | 83.5 |
| sense rCrArGrUrGrGrCrGrCrArCrCrArUrCrUrGrArAdTdT / antisense rUrUrCrArGrArUrGrGrUrGrCrGrCrCrArCrUrGdAdC | 61.8 |
| sense rCrArUrArUrGrArUrGrUrArUrCrUrUrCrUrArUdTdT / antisense rArUrArGrArArGrArUrArCrArUrCrArUrArUrGdTdT | 83.9 |
| sense rCrCrArArArArUrGrUrUrUrCrArUrCrCrArArAdTdT / antisense rUrUrUrGrGrArUrGrArArArCrArUrUrUrUrGrGdAdT | 84.6 |
| sense rCrCrArCrCrArArCrUrGrUrUrArGrGrUrUrUrUdTdT / antisense rArArArArCrCrUrArArCrArGrUrUrGrGrUrGrGdTdT | 69.7 |
| sense rCrGrArGrArArUrArUrGrArGrArArArArGrArGdTdT / antisense rCrUrCrUrUrUrUrCrUrCrArUrArUrUrCrUrCrGdTdT | 73.5 |
| sense rCrGrGrCrCrArUrUrGrUrUrGrArArCrArArArGdTdT / antisense rCrUrUrUrGrUrUrCrArArCrArArUrGrGrCrCrGdAdA | 76.5 |
| sense rCrGrGrGrArUrUrUrCrArArGrCrGrGrUrUrArCdTdT / antisense rGrUrArArCrCrGrCrUrUrGrArArArUrCrCrCrGdCdA | 85.1 |
| sense rCrUrGrArArGrArArUrArUrCrCrArArArUrArAdTdT / antisense rUrUrArUrUrUrGrGrArUrArUrUrCrUrUrCrArGdAdA | 80.1 |
| sense rCrUrUrCrArGrArArUrCrGrArUrGrGrArGrUrCdTdT / antisense rGrArCrUrCrCrArUrCrGrArUrUrCrUrGrArArGdGdA | 72.2 |
| sense rGrArArCrCrGrArArUrCrCrUrArArCrArGrUrCdTdT / antisense rGrArCrUrGrUrUrArGrGrArUrUrCrGrGrUrUrCdAdT | 72.7 |
| sense rGrArArGrArArUrArUrCrCrArArArUrArArArCdTdT / antisense rGrUrUrUrArUrUrUrGrGrArUrArUrUrCrUrUrCdAdG | 77.7 |
| sense rGrArArGrGrGrArCrArCrCrUrUrUrUrGrArArGdTdT / antisense rCrUrUrCrArArArArGrGrUrGrUrCrCrCrUrUrCdTdG | 79.8 |
| sense rGrArArUrArUrGrArGrArArArArGrArGrUrUrUdTdT / antisense rArArArCrUrCrUrUrUrUrCrUrCrArUrArUrUrCdTdC | 78.7 |
| sense rGrArArUrCrGrArUrGrGrArGrUrCrCrArArCrAdTdT / antisense rUrGrUrUrGrGrArCrUrCrCrArUrCrGrArUrUrCdTdG | 84.1 |
| sense rGrArGrArArArArGrArGrUrUrUrCrGrGrCrCrAdTdT / antisense rUrGrGrCrCrGrArArArCrUrCrUrUrUrUrCrUrCdAdT | 82.7 |
| sense rGrArGrArArUrArUrGrArGrArArArArGrArGrUdTdT / antisense rArCrUrCrUrUrUrUrCrUrCrArUrArUrUrCrUrCdGdT | 83.6 |
| sense rGrArUrGrUrArUrCrUrUrCrUrArUrCrUrUrArAdTdT / antisense rUrUrArArGrArUrArGrArArGrArUrArCrArUrCdAdT | 84.7 |
| sense rGrCrArCrArGrCrUrUrUrArUrCrArGrGrArArAdTdT / antisense rUrUrUrCrCrUrGrArUrArArArGrCrUrGrUrGrCdTdG | 83.8 |
